Legend:
Assay type in all cases: functional, cell-based
Conditions in all cases: Homo sapiens
[1] = tested on: MDA-MB-231; experiment: Antiproliferative activity against MDA-MB-231 cell line by MTS assay
[2] = tested on: A549; experiment: Antiproliferative activity against A549 cell line by MTS assay
[3] = tested on: DLD-1; experiment: Antiproliferative activity against DLD1 cell line by MTS assay
[4] = tested on: HT-29; experiment: Antiproliferative activity against HT29 cell line by MTS assay
[5] = tested on: NCI-H460; experiment: Antiproliferative activity against NCI-H460 cell line by MTS assay

How did the IC50 [1] turn out when `COC1=CC(c2ccc[nH]2)=N/C1=C\c1[nH]c(-c2ccc[nH]2)cc1OC` was run?
The IC50 was 12.8 µM.

What about the IC50 [2] of the same compound?
The IC50 was 6.45 µM.

What about the IC50 [3] of the same compound?
The IC50 was 7.74 µM.

What about the IC50 [4] of the same compound?
The IC50 was 13.5 µM.

And the IC50 [5]?
Its IC50 is 3.45 µM.

Which IC50 [1] does the source give for `COc1cc(-c2ccc[nH]2)[nH]c1/C=C1\C=Nc2ccccc21` here?
Its IC50 is 9.35 µM.

And the IC50 [2]?
Its IC50 is 6.61 µM.

What about the IC50 [3] of the same compound?
The IC50 was 6.02 µM.

And the IC50 [4]?
Its IC50 is 4.68 µM.

What about the IC50 [5] of the same compound?
The IC50 was 4.06 µM.

What does the source list for `COc1cc(-c2ccc[nH]2)[nH]c1/C=C1\C(C)=Nc2ccccc21`?
IC50 [1]: 47.4 µM; IC50 [2]: 54.6 µM; IC50 [3]: 63.2 µM; IC50 [4]: 36.2 µM; IC50 [5]: 21.6 µM

Which IC50 [1] does the source give for `COc1cc(-c2ccc[nH]2)[nH]c1/C=C1\C(C)=Nc2ccc(C)cc21` here?
The IC50 was 23.2 µM.

And the IC50 [2]?
The IC50 was 14.3 µM.

And the IC50 [3]?
The IC50 was 16.7 µM.

And the IC50 [4]?
Its IC50 is 12.3 µM.

What about the IC50 [5] of the same compound?
Its IC50 is 10.8 µM.

What does the source list for `CCCCCC1=C/C(=C/c2[nH]c(-c3ccc[nH]3)cc2OC)N=C1C` [PRODIGIOSIN]?
IC50 [1]: 0.213 µM; IC50 [2]: 0.077 µM; IC50 [3]: 0.079 µM; IC50 [4]: 0.173 µM; IC50 [5]: 0.032 µM

For `COc1cc(-c2ccc[nH]2)[nH]c1/C=C1/C=C2CCCCC2=N1`, which IC50 [1] is on record?
The IC50 was 1.38 µM.

And the IC50 [2]?
The IC50 was 0.487 µM.

What about the IC50 [3] of the same compound?
The IC50 was 0.446 µM.

And the IC50 [4]?
The IC50 was 0.781 µM.

And the IC50 [5]?
The IC50 was 0.23 µM.

What does the source list for `CCC1CCCCCCCCC2=N/C(=C\c3[nH]c(-c4ccc[nH]4)cc3OC)C1=C2` (stereo not given) [METACYCLOPRODIGININE]?
IC50 [1]: 5.21 µM; IC50 [2]: 1.25 µM; IC50 [3]: 1.78 µM; IC50 [4]: 1.7 µM; IC50 [5]: 0.33 µM

Reference: ChEMBL document CHEMBL1138112, “Indoloprodigiosins from the C-10 bipyrrolic precursor: new antiproliferative prodigiosin analogs” (Bioorg Med Chem Lett, 2006)
